In patent publication US7935718B2, “Treatment of dyskinesia” (Motac Neuroscience Limited, priority 2000, dated 2011):

Columns and labels:
[1] = system: reserpine-treated rat model of Parkinson's disease; test: Locomotion (hyperkinesia) after chloro-APB in reserpine-treated parkinsonian rats; format: in vivo; settings: reserpine (3 mg/kg) rats, chloro-APB (0.2 mg/kg) + imetit (1 mg/kg) versus vehicle, one hour period
Procedure: The effect of the H3-histamine receptor agonist imetit on dyskinesia was assessed in a reserpine-treated rat model of Parkinson's disease following treatment of the rats with the anti-parkinsonian agent chloro-APB (0.2 mg/kg).
Male Sprague-Dawley rats were split into two groups A and B. Rats in both groups were rendered parkinsonian by subcutaneous administration of reserpine (3 mg/kg) for 18 hours.
After the 18 hours Group A were treated with chloro-APB (0.2 mg/kg) and imetit (1 mg/kg) whereas B were treated with chloro-APB (0.2 mg/kg) and vehicle for imetit only.
The locomotion of the rats in Groups A and B was measured over a one hour period using Benwick locomotor monitors. These locomotion monitors consist of a visually-shielded open-field arena, the perimeter of which is surrounded by a series of infra-red beams arranged at 5 cm intervals. PC-based software (Amlogger) assesses the number of beams broken. The number of beams broken as part of a locomotor movement (mobile counts) or the number of beam breaks while the animal is not locomoting (static counts) were measured. In addition, the system assesses the time for which animals are mobile or static.

[2] = system: MPTP-lesioned marmoset model of Parkinson's disease; test: L-DOPA-induced mobility and dyskinesia in MPTP-lesioned marmosets; format: in vivo, Marmosets (Callithrix jacchus); settings: L-DOPA (8 mg/kg) + imetit 1, 3, 10 mg/kg oral; assessed every 30 minutes for 4 hours
Procedure: The effect of the H3-histamine receptor agonist imetit on L-DOPA-induced dyskinesia was assessed in the MPTP-lesioned marmoset model of Parkinson's disease.
Marmosets (Callithrix jacchus) (bred in a closed colony at the University of Manchester) are rendered parkinsonian by subcutaneous injection of 2 mg kg^−1 MPTP for 5 consecutive days. The marmosets are allowed to recover for a minimum of 10 weeks until their parkinsonism becomes stable. The degree of activity and disability before and after MPTP treatment is assessed using a combination of scales as described in section 2.1.2. Animals are then treated with L-DOPA for at least 3 weeks to prime them to elicit dyskinesia. […]
The behavioural tests were assessed every 30 minutes for 4 hours, by post hoc analysis of video-recordings by an observer blinded to the treatment. […]

N=C(N)SCCc1cnc[nH]1 [imetit]
total mobile counts [1]: less than those treated with vehicle
L-DOPA-induced mobility (mobility score) [2]: no effect on L-DOPA-induced mobility
severity of L-DOPA-induced dyskinesia (dyskinesia score) [2]: dose-dependent reduction
